Experimental data as given in ChEMBL document CHEMBL4831523, “Taichunins E-T, Isopimarane Diterpenes and a 20-nor-Isopimarane, from Aspergillus taichungensis (IBT 19404): Structures and Inhibitory Effects on RANKL-Induced Formation of Multinuclear Osteoclasts” (J Nat Prod, 2021).
Calls of active or inactive are those of the source. No cut-off for these calls is given here.

Tests used:
RAW264.7 [1] = assay: Cytotoxicity against RANKL-treated mouse RAW264.7 cells assessed as effect on cell viability at 50 uM measured after 4 days by MTT assay; assay type: cell-based; settings: raw264.7, 96 h, time 4 day
RAW264.7 [2] = assay: Inhibition of RANKL-induced osteoclastogenesis in mouse RAW264.7 cells assessed as reduction in number of TRAP-positive multinuclear cells at 5 uM measured after 4 days by TRAP staining based assay; assay type: functional, cell-based; settings: time 4.0 day
RAW264.7 [3] = assay: Inhibition of RANKL-induced osteoclastogenesis in mouse RAW264.7 cells assessed as reduction in number of TRAP-positive multinuclear cells measured after 4 days by TRAP staining based assay; assay type: functional, cell-based; settings: for inhibition: time 4.0 day
RAW264.7 [4] = assay: Inhibition of RANKL-induced osteoclastogenesis in mouse RAW264.7 cells assessed as reduction in number of TRAP-positive multinuclear cells at 0.2 uM measured after 4 days by TRAP staining based assay; assay type: functional; settings: RAW264.7, 96 h, time 4 day
RAW264.7 [5] = assay: Inhibition of RANKL-induced osteoclastogenesis in mouse RAW264.7 cells assessed as reduction in TRAP activity at 5 uM measured after 4 days by pNPP based assay; assay type: functional, cell-based; settings: time 4.0 day
RAW264.7 [6] = assay: Inhibition of RANKL-induced osteoclastogenesis in mouse RAW264.7 cells assessed as reduction in TRAP activity measured after 4 days by pNPP based assay; assay type: functional, cell-based; settings: dose 0.2-1 µM, time 4.0 day
RAW264.7 [7] = assay: Inhibition of RANKL-induced osteoclastogenesis in mouse RAW264.7 cells assessed as reduction in Nfatc1 mRNA expression at 30 uM measured after 24 hrs by qRT-PCR method; assay type: functional

SMILES: C=C[C@@]1(C)CCc2c3c(c(O)c(OS(=O)(=O)O)c2[C@H]1O)C(C)(C)CCC3
- Activity (RAW264.7 [1]): Non-Toxic

SMILES: C=C[C@]1(C)C=C2[C@H]([C@@H](O)C1)[C@@]1(C(=O)O)CCCC(C)(C)[C@@H]1C[C@@H]2O
- inhibition (RAW264.7 [2]): Active
- inhibition (RAW264.7 [3]): Dose-Dependent Effect
- inhibition at 0.2 µM (RAW264.7 [4]): 92%
- inhibition (RAW264.7 [5]): Active
- Activity (RAW264.7 [1]): Non-Toxic
- inhibition (RAW264.7 [6]): Dose-Dependent Effect

SMILES: C=C[C@]1(C)C=C2[C@H]3OC(=O)[C@@]4(CCCC(C)(C)[C@@H]4[C@H]3O)[C@@]2(O)CC1
- Activity (RAW264.7 [1]): Non-Toxic

SMILES: C=C[C@@]1(C)C[C@@H](O)[C@@H]2[C@@]34CCCC(C)(C)[C@@H]3[C@H](O)C(=O)[C@@]2(OC4=O)[C@H]1O
- Activity (RAW264.7 [1]): Non-Toxic

SMILES: C=C[C@@]1(C)CC[C@]2(O)[C@@]34CCCC(C)(C)C3=C(O)C(=O)[C@@]2(OC4=O)[C@H]1O
- Activity (RAW264.7 [1]): Non-Toxic

SMILES: C=C[C@@]1(C)CC(=O)C2=C([C@H]1O)[C@@]1(O)OC[C@@]23CCCC(C)(C)[C@@H]3[C@H]1O
- Activity (RAW264.7 [1]): Non-Toxic

SMILES: C=C[C@]1(C)C=C2[C@@H](O)C(=O)[C@H]3C(C)(C)CCC[C@]3(C(=O)O[C@@H]3O[C@H](CO)[C@@H](O)[C@H](O)[C@H]3O)[C@H]2CC1
- inhibition (RAW264.7 [2]): Active
- inhibition (RAW264.7 [3]): Dose-Dependent Effect
- inhibition (RAW264.7 [5]): Active
- Activity (RAW264.7 [1]): Non-Toxic
- inhibition (RAW264.7 [6]): Dose-Dependent Effect

SMILES: C=C[C@]1(C)C=C2C(=O)C(=O)[C@H]3C(C)(C)CCC[C@]3(C(=O)O)[C@@]2(O)CC1
- Activity (RAW264.7 [1]): Non-Toxic

SMILES: C=C[C@]1(C)C=C2[C@H](O)C[C@H]3C(C)(C)CC[C@@H](O)[C@]3(C)[C@H]2CC1
- Activity (RAW264.7 [1]): Non-Toxic

SMILES: C=C[C@]1(C)C=C2[C@H]3OC(=O)[C@@]4(CCCC(C)(C)[C@@H]4[C@H]3O)[C@H]2CC1
- inhibition (RAW264.7 [2]): Active
- inhibition (RAW264.7 [3]): Dose-Dependent Effect
- inhibition (RAW264.7 [5]): Active
- Activity (RAW264.7 [1]): Non-Toxic
- inhibition (RAW264.7 [6]): Dose-Dependent Effect

SMILES: C=C[C@]1(C)C=C2[C@H]3OC(OC)[C@@]4([C@H](O)CCC(C)(C)[C@@H]4[C@H]3O)[C@H]2CC1 (stereo not given in full)
- Activity (RAW264.7 [1]): Non-Toxic

SMILES: C=C[C@]1(C)C=C2[C@@H](O)C[C@H]3C(C)(C)CCC[C@]3(C(=O)O)[C@@]2(O)[C@H](O)C1
- Activity (RAW264.7 [1]): Non-Toxic

SMILES: C=C[C@]1(C)C=C2C(=O)C[C@H]3C(C)(C)CC[C@@H](O)[C@]3(C(=O)O)[C@H]2CC1
- Activity (RAW264.7 [1]): Non-Toxic

SMILES: C=C[C@]1(C)C=C2[C@@H](O)C[C@H]3C(C)(C)CCC[C@]3(C(=O)O)[C@H]2CC1
- Activity (RAW264.7 [1]): Non-Toxic

SMILES: C=C[C@@]1(C)CC[C@H]2C(=C[C@H](O)[C@H]3C(C)(C)CC[C@@H](O)[C@]23C)[C@H]1O
- Activity (RAW264.7 [1]): Non-Toxic

SMILES: C=C[C@@]1(C)C[C@@H](O)[C@H]2C(=C[C@H](O)[C@H]3C(C)(C)CCC[C@]23C)[C@H]1O
- Activity (RAW264.7 [1]): Non-Toxic

SMILES: C=C[C@]1(C)C=C2[C@@H](O)[C@@]3(O)OC(=O)[C@@]4(CCCC(C)(C)[C@H]34)[C@@]2(O)CC1 [SPHAEROPSIDIN B]
- IC50 (RAW264.7 [3]; RAW264.7, 96 h): 10.6 µM
- inhibition at 30 µM (RAW264.7 [7]): 63%
- Activity (RAW264.7 [1]): Non-Toxic

SMILES: C=C[C@@]1(C)CC[C@H]2[C@H]([C@H]1O)[C@@H](O)C[C@H]1C(C)(C)CCC[C@]21C(=O)O
- Activity (RAW264.7 [1]): Non-Toxic

SMILES: C=C[C@]1(C)C=C2C(=O)C[C@H]3C(C)(C)CCC[C@]3(C(=O)O)[C@@]2(O)CC1 [SPHAEROPSIDIN C]
- Activity (RAW264.7 [1]): Non-Toxic

SMILES: C=C[C@]1(C)C=C2C(=O)[C@@H](O)[C@H]3C(C)(C)CCC[C@]3(C(=O)O[C@@H]3O[C@H](CO)[C@@H](O)[C@H](O)[C@H]3O)[C@H]2CC1
- Activity (RAW264.7 [1]): Non-Toxic
